Here are results for 1 compound from patent US7037656B2, “Methods and compositions for identifying ligands for nuclear receptors” (priority 2000, dated 2006).

Common to all, as to assay: Yeast 6x EcRE-lacZ β-galactosidase transactivation assay
The subject of test [1] is Cf ΔA/B EcR + RXR β + GRIP1. In kind it is cell-based, Choristoneura fumiferana; mouse. Conditions: RH 5992 10 μM, 4 hours, DMSO control 0.205. As for the experimental part: (§1) The human RXR α (Genbank accession number X52773), mouse RXR β (Genbank accession number X66224) or mouse RXR γ (Genebank accession number X66225) subtypes were expressed in yeast-E. coli multicopy 2μ expression plasmids under regulation of CUP1 promoter with the LEU2 selective marker (1).
(§2) Briefly, yeast cells are cultured in 5 mL of YPD liquid medium overnight at 30° C. The cell culture was diluted 1:20 in YPD media and further grown until cell density reached an O.D of 0.6. at OD600. The cells were pelleted by centrifugation and washed with 10 mL of TE+0.1M lithium acetate. Cells are then resuspended in 10 mL TE+0.1M lithium acetate and incubated at 30° C. for 1 hour. Cells are collected and resuspended in 0.5 mL of TE+ 0.1M lithium acetate. Aliquots of cells (50 μL), were incubated for 15 minutes at 30° C. with 1–2 μg plasmid DNA in the presence of 5 μg of denatured salmon sperm DNA as DNA carrier. In the case of co-transformation, the indicated plasmids were added simultaneously. 50% polyethyleneglycol of molecular weight 4000, diluted in TE, was added to a final concentration of 35%. DMSO was added to the transformation solution simultaneously to a final concentration 3%. The samples were mixed well by vortexing and incubated for an additional 30 minutes at 30° C. The cell mixture is then heated for 15 minutes at 42° C. […]

Test [2] has as its target T1, Cf ΔA/B EcR + RXR γ + GRIP1 (Choristoneura fumiferana, UniProt O77240).
T1 construct: human ubiquitin (76 aa) (N, cleaved yes); expressed in transfected cells; host or cells: yeast (Saccharomyces cerevisiae)
The format is cell-based, Choristoneura fumiferana; mouse. The following applies: RH 5992 10 μM, 4 hours, DMSO control 0.200. As for the experimental part: as §1, §2

Test [3] relates to Aa ΔA/B EcR + Aa ΔA/B USP + GRIP1. The format is cell-based, Aedes aegypti. Conditions: RH 5992 10 μM, 4 hours, DMSO control 0.194. As for the experimental part: Briefly, yeast cells are cultured in 5 mL of YPD liquid medium overnight at 30° C. The cell culture was diluted 1:20 in YPD media and further grown until cell density reached an O.D of 0.6. at OD600. The cells were pelleted by centrifugation and washed with 10 mL of TE+0.1M lithium acetate. Cells are then resuspended in 10 mL TE+0.1M lithium acetate and incubated at 30° C. for 1 hour. Cells are collected and resuspended in 0.5 mL of TE+ 0.1M lithium acetate. Aliquots of cells (50 μL), were incubated for 15 minutes at 30° C. with 1–2 μg plasmid DNA in the presence of 5 μg of denatured salmon sperm DNA as DNA carrier. In the case of co-transformation, the indicated plasmids were added simultaneously. 50% polyethyleneglycol of molecular weight 4000, diluted in TE, was added to a final concentration of 35%. DMSO was added to the transformation solution simultaneously to a final concentration 3%. The samples were mixed well by vortexing and incubated for an additional 30 minutes at 30° C. The cell mixture is then heated for 15 minutes at 42° C. Cells were then collected and plated onto appropriate yeast selective media. Transformants of 4 plasmids are selected on the complete media without tryptophan, uracil, leucine and histidine.
The yeast cells grown overnight in selective liquid media at 30° C. were diluted in prewarmed liquid selective media to 0.1 at OD600 (ODculture). 100 μl of the cell culture was spiked to each well of a.96-well microtiter plate. Ligand (2 μl diluted in DMSO) was added to each well giving a final concentration of DMSO of 2%. As a control, 2 μl of DMSO were also added to additional test wells. The final concentration of the tested compounds in the media is 10 μM. The cells were incubated in the presence of ligand in a shaker at 30° C. After 4 hours of incubation, 100 μl of 2× “Z” Sarcosine-ONPG buffer (120 mM Na2HPO4, 80 mM NaH2PO4, 20 mM KCl, 2 mM MgSO4, 100 mM beta-mercaptoethanol (Sigma), pH 7.0, 0.4% lauroyl sarcosine (Sigma), 4 mg/mL ONPG (Diagnostic Chemicals limited) was added to each well and the plate was further incubated at 37° C. The 2× “Z” Sarcosine-ONPG buffer is freshly prepared or stored at −20° C. prior to use. After incubation at 37° C. for 1 hour. The reaction was stopped by adding 100 μL of quenching solution 0.5 M Na2CO3 and OD405 (ODreaction) and beta-galactosidase activity was measured in a micro plate reader (Biotek) at a wave length of 405–450 nanometers. The effect of copper on enhancement of the transactivation response mediated by the ligands tested was studied by adding CuSO4 to the media to a final concentration of 10 μM.
Using the transformation method described above, yeast were co-transformed with a reporter gene as shown in FIG. 2 and the expression vector encoding the full-length Aedes aegypti ecdysone receptor, Aa EcR (FIG. 7A) in the presence or absence of the Aa EcR heterodimer partner, Aa USP (a or b form, FIGS. 8A and 8B respectively). Transformed cells were incubated with DMSO alone as a control, or with a proprietary ecdysone receptor ligand (Rohm & Haas tebufenozide[RH5992]) at final concentration 10 μM for 4 hours. The samples were then assayed for β-galactosidase activity as described above. […] As the N-terminal portion of the AaEcR receptor is reported to play a role in ligand independent transactivation, an expression vector containing an N-terminal deletion in the Aa EcR was constructed (see FIG. 7B) and assessed in the β-galactosidase assays described above. […] Restoration of ligand dependent transactivation was observed only when the AaΔN EcR, AaUSP (a or b forms) and co-activator GRIP1 were coexpressed. As in the Drosophila system, the data obtained indicate that the efficiency of ligand-dependent transactivation of the ecdysone receptor in mosquito A. aegypti is dependent on the both heterodimer formation of EcR/USP and also upon proper interaction with co-activator GRIP1.

For test [4], the target named is T2, Cf ΔA/B EcR + RXR α + GRIP1 (Choristoneura fumiferana, UniProt O77240).
T2 construct: human ubiquitin (76 aa) (N, cleaved yes); expressed in transfected cells; host or cells: yeast (Saccharomyces cerevisiae)
The format is cell-based, Choristoneura fumiferana; human. The following applies: RH 5992 10 μM, 4 hours, DMSO control 0.270. Here is the method: as §1, §2

T1 sequence (O77240 entry or part of it, stated change not applied): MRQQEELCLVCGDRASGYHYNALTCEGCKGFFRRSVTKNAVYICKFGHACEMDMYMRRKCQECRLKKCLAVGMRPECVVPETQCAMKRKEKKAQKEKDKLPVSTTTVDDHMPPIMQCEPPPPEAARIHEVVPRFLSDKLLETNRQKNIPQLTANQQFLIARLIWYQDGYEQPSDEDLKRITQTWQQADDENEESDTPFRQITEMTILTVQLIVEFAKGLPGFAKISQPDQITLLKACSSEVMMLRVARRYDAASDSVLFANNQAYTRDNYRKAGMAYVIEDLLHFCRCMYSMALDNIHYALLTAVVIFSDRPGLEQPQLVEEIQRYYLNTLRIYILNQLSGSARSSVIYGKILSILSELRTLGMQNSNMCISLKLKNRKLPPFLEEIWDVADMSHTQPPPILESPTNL
T1 sequence (P28705 whole entry partner): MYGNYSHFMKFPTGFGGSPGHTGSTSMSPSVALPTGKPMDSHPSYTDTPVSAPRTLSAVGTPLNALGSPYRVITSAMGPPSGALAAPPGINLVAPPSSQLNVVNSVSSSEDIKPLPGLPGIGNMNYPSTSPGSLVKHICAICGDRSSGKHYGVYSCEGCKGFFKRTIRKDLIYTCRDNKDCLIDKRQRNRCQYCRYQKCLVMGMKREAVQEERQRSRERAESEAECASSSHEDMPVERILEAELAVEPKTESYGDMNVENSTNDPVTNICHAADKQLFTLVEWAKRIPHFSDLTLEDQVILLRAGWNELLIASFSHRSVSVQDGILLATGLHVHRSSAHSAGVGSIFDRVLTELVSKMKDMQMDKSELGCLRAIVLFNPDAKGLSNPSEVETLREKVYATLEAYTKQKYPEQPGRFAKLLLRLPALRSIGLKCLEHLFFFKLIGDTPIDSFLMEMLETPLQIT
T2 sequence (O77240 entry or part of it, stated change not applied): as the sequence (O77240 entry or part of it, stated change not applied) above
T2 sequence (P19793 whole entry partner): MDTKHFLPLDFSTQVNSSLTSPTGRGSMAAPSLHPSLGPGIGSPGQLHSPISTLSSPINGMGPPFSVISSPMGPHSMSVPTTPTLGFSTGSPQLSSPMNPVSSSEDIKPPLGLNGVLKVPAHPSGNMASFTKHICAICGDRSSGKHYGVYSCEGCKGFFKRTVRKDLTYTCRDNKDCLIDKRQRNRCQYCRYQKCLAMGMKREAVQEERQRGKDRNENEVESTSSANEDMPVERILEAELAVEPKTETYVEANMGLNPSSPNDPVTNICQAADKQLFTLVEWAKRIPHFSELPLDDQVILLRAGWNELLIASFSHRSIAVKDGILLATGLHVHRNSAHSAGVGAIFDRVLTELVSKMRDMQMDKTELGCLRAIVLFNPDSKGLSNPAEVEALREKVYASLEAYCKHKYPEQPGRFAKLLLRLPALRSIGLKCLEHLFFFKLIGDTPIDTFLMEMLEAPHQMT

`CCc1ccc(C(=O)NN(C(=O)c2cc(C)cc(C)c2)C(C)(C)C)cc1` [RH 5992, tebufenozide]: the β-galactosidase activity in test [1] was 0.456; in test [2], 1.030; in test [3], 1.370; in test [4] it was 2.063.
